{"source": "paper PMC4792557", "about": "(Oncotarget, 2015)", "assay_in_all_cases": "cells", "key": {"[1]": {"tested_on": "H358", "set-up": "species or system H23, H460, A549; CellTiter-Glo ATP viability of NSCLC cell lines", "details": "Homo sapiens, NCI-H358, 48 h, read-out: AZD6738 GI50 (uM)", "procedure": "(§1) ATP levels were assessed as surrogate measure of viability was assessed using the CellTiter-Glo Luminescent Cell Viability Assay (Promega) and Safire^2 plate reader (Tecan). Raw data were corrected for background luminescence prior to further analysis. […] GI50 values, defined as the dose X at which Y = 50%, were extrapolated from dose response curves. For combination treatments, data were normalized to the mean of untreated controls. Loewe excess matrices were generated using Chalice Analyzer Online (Horizon CombinatoRx) and mean normalized inhibition values. […] Log dose response curves were generated in GraphPad Prism 6 by nonlinear regression (log(inhibitor) vs. normalized response with variable slope) of log-transformed (x = log(x)), normalized data. IC50 values were calculated by Prism 6."}, "[2]": {"tested_on": "H23", "set-up": "species or system H460, A549, H358; CellTiter-Glo ATP viability of NSCLC cell lines", "details": "Homo sapiens, NCI-H23, 48 h, read-out: AZD6738 GI50 (uM)", "procedure": "as §1"}, "[3]": {"tested_on": "A549", "set-up": "species or system H23, H460, H358; CellTiter-Glo ATP viability of NSCLC cell lines", "details": "Homo sapiens, A549, 48 h, read-out: AZD6738 GI50 (uM)", "procedure": "as §1"}, "[4]": {"tested_on": "H460", "set-up": "species or system H23, A549, H358; CellTiter-Glo ATP viability of NSCLC cell lines", "details": "Homo sapiens, NCI-H460, 48 h, read-out: AZD6738 GI50 (uM)", "procedure": "as §1"}}}
{"compound": "C[C@@H]1COCCN1c1cc(C2([S@](C)(=N)=O)CC2)nc(-c2cc[nH]c3nccc2-3)n1", "note": "[AZD6738]", "values": [{"measurement": "GI50", "setting": "[1]", "result": 6.95, "unit": "µM"}, {"measurement": "GI50", "setting": "[2]", "result": 2.38, "unit": "µM"}, {"measurement": "GI50", "setting": "[3]", "result": 5.42, "unit": "µM"}, {"measurement": "GI50", "setting": "[4]", "result": 1.05, "unit": "µM"}]}
